Results from patent US20020028805A1, “Methods of inhibiting uterotrophic effects of estrogenic agents” (American Home Products Corporation, priority 2000, published 2002).
“Also recorded” adds a separate entry of the source.

System: immature rat uterus
Assay: 3-day uterine model: uterine wet weight in immature rats
Details: for Effect on ethinyl estradiol induced uterine wet weight increase (in words): 100 μg in combination with 0.5 μg ethinyl estradiol; for Effect on ethinyl estradiol induced uterine wet weight increase (in words) / Effect on raloxifene induced uterine stimulation (in words): three days; for % increase weight (vs. control) / Mean Wet Weight: 3 days; for Effect on raloxifene induced uterine stimulation (in words): co-administered with raloxifene (10 μg; 1 μmg [sic], ~0.2 mg/kg), 1-100 μg, 0.2 mg/kg; for Agonist effect on uterine wet weight (in words) / Increase in uterine wet weight over control: compound alone; for Agonist effect on uterine wet weight (in words): 10 and 100 μg/rat, three days of treatment, 1-way ANOVA; for Increase in uterine wet weight over control: for TSE-424 the highest increase seen
[1] = Experiment No. 1, 10 μg alone, s.c.
[2] = Experiment No. 1, 100 μg + EE (0.5 μg ethinyl estradiol), s.c.
[3] = Experiment No. 1, 100 μg alone, s.c.
[4] = Experiment No. 2, 1 μg + Raloxifene 10 μg
[5] = Experiment No. 2, 10 μg + Raloxifene 10 μg
[6] = Experiment No. 2, 10 μg alone, s.c.
[7] = Experiment No. 2, 50 μg + Raloxifene 10 μg
[8] = Experiment No. 2, 100 μg + Raloxifene 10 μg
[9] = Experiment No. 2, 100 μg alone, s.c.
[10] = Experiment No. 4, 10 μg alone, s.c.
[11] = Experiment No. 4, 100 μg alone, s.c.
[12] = Experiment No. 3, 10 μg alone, s.c.
[13] = Experiment No. 3, 100 μg + EE (0.5 μg ethinyl estradiol), s.c.
[14] = Experiment No. 3, 100 μg alone, s.c.
[15] = Experiment No. 4, 1 μg + Raloxifene 10 μg
[16] = Experiment No. 4, 10 μg + Raloxifene 10 μg
[17] = Experiment No. 4, 50 μg + Raloxifene 10 μg
[18] = Experiment No. 4, 100 μg + Raloxifene 10 μg

`Cc1c(-c2ccc(O)cc2)n(Cc2ccc(OCCN3CCCCC3)cc2)c2ccc(O)cc12` [ERA-923, 2-(4-Hydroxy-phenyl)-3-methyl-1-(4-(2-piperidin-1-yl-ethoxy)-benzyl]-1H-indol-5-ol] was tested, and the “Effect on ethinyl estradiol induced uterine wet weight increase (in words)” value was “reduced ethinyl estradiol induced wet weight increases to control values; also recorded: reduced the increased wet weight stimulated by ethinyl estradiol to control”, the “% increase weight (vs. control)” value [1] was 129.8% and the “Mean Wet Weight” value [1] was 39.9 mg. For the same molecule, the “% increase weight (vs. control)” value [2] was 79.1%, the “Mean Wet Weight” value [2] was 24.3 mg and the “% increase weight (vs. control)” value [3] was 89.3%. For the same molecule, the “Mean Wet Weight” value [3] was 27.5 mg, the “% increase weight (vs. control)” value [4] was 144.4% and the “Mean Wet Weight” value [4] was 38.7 mg. The “% increase weight (vs. control)” value [5] was 100.8%, the “Mean Wet Weight” value [5] was 27.0 mg and the “% increase weight (vs. control)” value [6] was 93.5%. For the same molecule, the “Mean Wet Weight” value [6] was 25.1 mg, the “% increase weight (vs. control)” value [7] was 81.6% and the “Mean Wet Weight” value [7] was 21.9 mg. For the same molecule, the “% increase weight (vs. control)” value [8] was 81.6%, the “Mean Wet Weight” value [8] was 21.9 mg and the “% increase weight (vs. control)” value [9] was 75.1%. For the same molecule, the “Mean Wet Weight” value [9] was 20.1 mg, the “Effect on raloxifene induced uterine stimulation (in words)” value was “antagonized the uterine stimulation; also recorded: reduced to control values or less at all doses except for 1 μg” and the “Agonist effect on uterine wet weight (in words)” value (“Agonist effect” for short) was “neither ERA-923 nor TSE-424 statistically increased uterine wet weight; also recorded: neither ERA-923 (Experiment No.1) nor TSE-424 (Experiment No. 3) treatments resulted in a statistical increase in uterine wet weight”.

For `C#C[C@]1(O)CC[C@H]2[C@@H]3CCc4cc(O)ccc4[C@H]3CC[C@@]21C` [Ethinyl estradiol, 17α-ethinyl estradiol, reference compound], the “% increase weight (vs. control)” value (Experiment No. 1, 0.5 μg s.c.) was 205.7%, the “Mean Wet Weight” value (Experiment No. 1, 0.5 μg s.c.) was 63.2 mg and the “% increase weight (vs. control)” value (Experiment No. 2, 0.5 μg s.c.) was 317.3%. The “Mean Wet Weight” value (Experiment No. 2, 0.5 μg s.c.) was 85.1 mg, the “% increase weight (vs. control)” value (Experiment No. 3, 0.5 μg s.c.) was 262.1% and the “Mean Wet Weight” value (Experiment No. 3, 0.5 μg s.c.) was 94.1 mg. The “% increase weight (vs. control)” value (Experiment No. 4, 0.5 μg s.c.) was 406.4% and the “Mean Wet Weight” value (Experiment No. 4, 0.5 μg s.c.) was 98.7 mg.

With `O=C(c1ccc(OCCN2CCCCC2)cc1)c1c(-c2ccc(O)cc2)sc2cc(O)ccc12` [Raloxifene, raloxifene, reference compound] the “% increase weight (vs. control)” value [6] was 172.4%, the “Mean Wet Weight” value [6] was 46.2 mg and the “% increase weight (vs. control)” value [9] was 145.8%. The “Mean Wet Weight” value [9] was 39.1 mg, the “% increase weight (vs. control)” value [10] was 185.2% and the “Mean Wet Weight” value [10] was 45.0 mg. The “% increase weight (vs. control)” value [11] was 175.9%, the “Mean Wet Weight” value [11] was 42.7 mg and the “Agonist effect” value was “statistically increased uterine wet weights at both tested doses”. The “Increase in uterine wet weight over control” value was 75-85%.

In the case of `Cc1c(-c2ccc(O)cc2)n(Cc2ccc(OCCN3CCCCCC3)cc2)c2ccc(O)cc12` [TSE-424, 1-[4-(2-Azepan-1yl-ethoxy)-benzyl]-2-(4-hydroxy-phenyl)-3-methyl-1H-indol-5-ol], the “Effect on ethinyl estradiol induced uterine wet weight increase (in words)” value is reported as “reduced ethinyl estradiol induced wet weight increases to control values; also recorded: less than control values”, the “% increase weight (vs. control)” value [12] is reported as 92.4% and the “Mean Wet Weight” value [12] is reported as 33.2 mg. For the same molecule, the “% increase weight (vs. control)” value [13] was 77.7%, the “Mean Wet Weight” value [13] was 27.9 mg and the “% increase weight (vs. control)” value [14] was 81.9%. The “Mean Wet Weight” value [14] was 29.4 mg, the “% increase weight (vs. control)” value [15] was 170.4% and the “Mean Wet Weight” value [15] was 41.4 mg. The “% increase weight (vs. control)” value [16] was 142%, the “Mean Wet Weight” value [16] was 34.5 mg and the “% increase weight (vs. control)” value [10] was 135.0%. For the same molecule, the “Mean Wet Weight” value [10] was 32.7 mg, the “% increase weight (vs. control)” value [17] was 139.3% and the “Mean Wet Weight” value [17] was 33.8 mg. For the same molecule, the “% increase weight (vs. control)” value [18] was 136.5%, the “Mean Wet Weight” value [18] was 33.2 mg and the “% increase weight (vs. control)” value [11] was 109.4%. The “Mean Wet Weight” value [11] was 26.6 mg, the “Effect on raloxifene induced uterine stimulation (in words)” value was “antagonized the uterine stimulation; also recorded: reduced the increased wet weight stimulated by raloxifene to the highest increase seen with TSE-424 alone” and the “Agonist effect” value was “neither ERA-923 nor TSE-424 statistically increased uterine wet weight; also recorded: neither ERA-923 (Experiment No.1) nor TSE-424 (Experiment No. 3) treatments resulted in a statistical increase in uterine wet weight”. For the same molecule, the “Increase in uterine wet weight over control” value was 35%.
